Experimental data: patent US7427627B2, “N-(4-(4-methylthiazol-5-yl) pyrimidin-2-yl)-N-phenylamines as antiproliferative compounds” (Cyclacel Limited, priority 2001, dated 2008)
Like-named read-outs stand apart in the source and are kept apart here.

Key:
[1] = system: A549; test: 72-h MTT cytotoxicity assay, A549; type: cell-based, human; conditions: Homo sapiens
Description: In short: cells were seeded into 96-well plates according to doubling time and incubated overnight at 37° C. Test compounds were made up in DMSO and a 1/3 dilution series prepared in 100 μL cell media, added to cells (in triplicates) and incubated for 72 ho at 37° C. MTT was made up as a stock of 5 mg/mL in cell media and filter-sterilised. Media was removed from cells followed by a wash with 200 μL PBS. MTT solution was then added at 20 μL per well and incubated in the dark at 37° C. for 4 h. MTT solution was removed and cells again washed with 200 μL PBS. MTT dye was solubilised with 200 μL per well of DMSO with agitation.

[2] = system: HT29; test: 72-h MTT cytotoxicity assay, HT29; type: cell-based; conditions: Homo sapiens, HT-29, read-out: 72-h MTT in vitro IC50 (μM) HT29; Table 1; 72 h
Description: (§1) The compounds from the examples above were subjected to a standard cellular proliferation assay using human tumour cell lines obtained from the ATCC (American Type Culture Collection, 10801 University Boulevard, Manessas, Va. 20110-2209, USA). Standard 72-h MTT (thiazolyl blue; 3-[4,5-dimethylthiazol-2-yl]-2,5-diphenyltetrazolium bromide) assays were performed (Haselsberger, K.; Peterson, D. C.; Thomas, D. G.; Darling, J. L. Anti Cancer Drugs 1996, 7, 331-8; Loveland, B. E.; Johns, T. G.; Mackay, I. R.; Vaillant, F.; Wang, Z. X.; Hertzog, P. J. Biochemistry International 1992, 27, 501-10). In short: cells were seeded into 96-well plates according to doubling time and incubated overnight at 37° C. Test compounds were made up in DMSO and a 1/3 dilution series prepared in 100 μL cell media, added to cells (in triplicates) and incubated for 72 ho at 37° C. MTT was made up as a stock of 5 mg/mL in cell media and filter-sterilised. Media was removed from cells followed by a wash with 200 μL PBS. MTT solution was then added at 20 μL per well and incubated in the dark at 37° C. for 4 h. MTT solution was removed and cells again washed with 200 μL PBS. MTT dye was solubilised with 200 μL per well of DMSO with agitation.

[3] = system: Saos-2; test: 72-h MTT cytotoxicity assay, Saos-2; type: cell-based; conditions: Homo sapiens, SAOS-2, read-out: 72-h MTT in vitro IC50 (μM) Saos-2; Table 1; 72 h
Description: as §1

[4] = molecular target: T1, CDK1-cyclin B1 complex (Homo sapiens, UniProt P06493); test: Kinase specificity assay CDK1/B1; type: biochemical; conditions: Table 2
T1 construct: His6

[5] = molecular target: CDK7-cyclin H-MAT 1 complex (Homo sapiens, UniProt P50613); test: Kinase specificity assay CDK7/H; type: biochemical; conditions: Table 2
[6] = molecular target: extracellular-signal-regulated kinase 2 (Homo sapiens, UniProt P28482); test: Kinase specificity assay ERK-2; type: biochemical; conditions: Table 2
Chain of extracellular-signal-regulated kinase 2 (P28482 whole entry): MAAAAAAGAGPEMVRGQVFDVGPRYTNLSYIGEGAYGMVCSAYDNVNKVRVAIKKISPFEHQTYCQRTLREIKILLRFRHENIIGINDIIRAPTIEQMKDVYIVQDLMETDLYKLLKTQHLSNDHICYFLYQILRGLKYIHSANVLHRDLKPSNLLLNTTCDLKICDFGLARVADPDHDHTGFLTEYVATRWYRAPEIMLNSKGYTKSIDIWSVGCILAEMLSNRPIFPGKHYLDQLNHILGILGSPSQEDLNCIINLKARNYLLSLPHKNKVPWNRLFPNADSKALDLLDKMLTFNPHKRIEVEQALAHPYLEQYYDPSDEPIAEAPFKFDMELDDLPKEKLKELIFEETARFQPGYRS

[7] = molecular target: T2, protein kinase C α (Homo sapiens, UniProt P17252); test: Kinase specificity assay PKCα; type: biochemical; conditions: Table 2
T2 construct: His6
Description: PKCα kinase activity may be measured by the incorporation of radio-labeled phosphate in Histone 3, as described. The reaction mixture (total volume 65 μl) consist of 50 mM Tris-HCl, 1 mM Calcium acetate, 3 mM DTT, 0.03 mg/ml Phosphatidylserine, 2.4 μg/ml PMA, 0.04% NP40, 12 mM Mg/Cl, purified PKCα-100 ng, Histone 3, 0.2 mg/ml, 100 μM ATP, 0.2 μCi [γ-^32P]-ATP. The reaction is carried over 15 min at 37° C. in microplate shaker and is stopped by adding 10 μl 75 mM orthophosphoric acid and placing the plate on ice. 50 μl of the reaction mixture is transferred onto P81 filterplate and after washing off the free radioactive phosphate (3 times with 200 μl 75 mM orthophosphoric acid per well) 50 μl of scintillation liquid (Microscint 40) were added to each well and the radioactivity is measured on Scintillation counter (Topcount, HP).

[8] = molecular target: Ableson tyrosine kinase (Homo sapiens, UniProt P00519); test: Kinase specificity assay Abl; type: biochemical; conditions: Table 2
Chain of Ableson tyrosine kinase (P00519 whole entry): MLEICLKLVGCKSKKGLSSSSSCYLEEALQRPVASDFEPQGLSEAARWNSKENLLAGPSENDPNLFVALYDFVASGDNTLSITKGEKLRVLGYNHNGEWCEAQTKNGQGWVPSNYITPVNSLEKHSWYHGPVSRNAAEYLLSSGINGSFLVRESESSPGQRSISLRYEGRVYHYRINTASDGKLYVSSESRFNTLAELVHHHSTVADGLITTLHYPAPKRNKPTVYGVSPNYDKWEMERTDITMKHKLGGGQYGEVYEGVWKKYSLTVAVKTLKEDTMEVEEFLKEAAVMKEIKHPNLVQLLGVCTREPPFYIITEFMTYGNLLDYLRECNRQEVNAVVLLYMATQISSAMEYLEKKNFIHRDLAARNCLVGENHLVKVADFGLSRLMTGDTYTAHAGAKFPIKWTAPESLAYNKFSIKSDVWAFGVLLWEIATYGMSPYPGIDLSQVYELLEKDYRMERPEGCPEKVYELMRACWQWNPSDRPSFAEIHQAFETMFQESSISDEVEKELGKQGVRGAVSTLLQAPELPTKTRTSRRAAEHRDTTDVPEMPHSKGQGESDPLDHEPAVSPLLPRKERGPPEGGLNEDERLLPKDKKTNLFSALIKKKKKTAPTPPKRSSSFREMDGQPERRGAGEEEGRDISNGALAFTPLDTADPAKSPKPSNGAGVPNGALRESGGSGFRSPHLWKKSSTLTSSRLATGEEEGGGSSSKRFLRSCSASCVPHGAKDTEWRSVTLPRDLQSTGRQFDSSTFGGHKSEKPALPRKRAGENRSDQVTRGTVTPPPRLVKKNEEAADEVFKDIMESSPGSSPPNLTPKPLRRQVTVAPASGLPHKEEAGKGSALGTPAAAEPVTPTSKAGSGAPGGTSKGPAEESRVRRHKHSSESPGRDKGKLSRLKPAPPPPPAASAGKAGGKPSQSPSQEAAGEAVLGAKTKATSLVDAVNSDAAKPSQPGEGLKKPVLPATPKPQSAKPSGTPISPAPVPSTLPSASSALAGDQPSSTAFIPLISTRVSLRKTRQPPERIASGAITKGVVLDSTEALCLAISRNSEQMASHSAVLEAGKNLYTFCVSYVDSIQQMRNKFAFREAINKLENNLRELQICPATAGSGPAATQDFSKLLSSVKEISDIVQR

[9] = molecular target: protein kinase B (Homo sapiens, UniProt P31749); test: Kinase specificity assay Akt/PKB; type: biochemical; conditions: Table 2
Chain of protein kinase B (P31749 whole entry): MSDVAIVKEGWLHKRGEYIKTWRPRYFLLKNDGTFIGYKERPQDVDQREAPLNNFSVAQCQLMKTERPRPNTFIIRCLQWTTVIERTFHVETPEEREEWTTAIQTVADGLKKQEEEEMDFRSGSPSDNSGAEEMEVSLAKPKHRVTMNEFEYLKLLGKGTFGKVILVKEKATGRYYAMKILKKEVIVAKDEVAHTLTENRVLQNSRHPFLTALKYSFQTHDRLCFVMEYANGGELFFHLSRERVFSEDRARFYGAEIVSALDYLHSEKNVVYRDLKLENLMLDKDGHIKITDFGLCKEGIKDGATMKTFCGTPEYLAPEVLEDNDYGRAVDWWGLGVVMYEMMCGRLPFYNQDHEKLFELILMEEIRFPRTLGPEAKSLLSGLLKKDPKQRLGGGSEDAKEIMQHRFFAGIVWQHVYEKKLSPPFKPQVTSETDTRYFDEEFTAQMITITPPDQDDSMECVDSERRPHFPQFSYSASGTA

[10] = molecular target: p70 ribosomal protein S6 kinase (Homo sapiens, UniProt P23443); test: Kinase specificity assay p70-S6K; type: biochemical; conditions: Table 2
Chain of p70 ribosomal protein S6 kinase (P23443 24-525): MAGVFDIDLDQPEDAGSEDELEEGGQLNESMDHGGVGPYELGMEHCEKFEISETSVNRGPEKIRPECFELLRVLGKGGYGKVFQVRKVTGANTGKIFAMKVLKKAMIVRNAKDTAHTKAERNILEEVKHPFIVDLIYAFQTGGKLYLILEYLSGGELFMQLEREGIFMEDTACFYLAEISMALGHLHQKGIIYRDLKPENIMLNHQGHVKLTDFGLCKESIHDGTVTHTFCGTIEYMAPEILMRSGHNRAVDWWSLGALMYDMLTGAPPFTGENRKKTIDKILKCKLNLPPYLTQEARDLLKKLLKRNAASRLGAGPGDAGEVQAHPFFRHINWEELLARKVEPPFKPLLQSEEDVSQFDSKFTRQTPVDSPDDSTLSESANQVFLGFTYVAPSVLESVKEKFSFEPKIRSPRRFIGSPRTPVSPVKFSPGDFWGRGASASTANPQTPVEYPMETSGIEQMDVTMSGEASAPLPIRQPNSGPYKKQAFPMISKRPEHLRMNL

[11] = molecular target: stress-activated protein kinase 2a (Homo sapiens, UniProt Q16539); test: Kinase specificity assay SAPK2a; type: biochemical; conditions: Table 2
Chain of stress-activated protein kinase 2a (Q16539 whole entry): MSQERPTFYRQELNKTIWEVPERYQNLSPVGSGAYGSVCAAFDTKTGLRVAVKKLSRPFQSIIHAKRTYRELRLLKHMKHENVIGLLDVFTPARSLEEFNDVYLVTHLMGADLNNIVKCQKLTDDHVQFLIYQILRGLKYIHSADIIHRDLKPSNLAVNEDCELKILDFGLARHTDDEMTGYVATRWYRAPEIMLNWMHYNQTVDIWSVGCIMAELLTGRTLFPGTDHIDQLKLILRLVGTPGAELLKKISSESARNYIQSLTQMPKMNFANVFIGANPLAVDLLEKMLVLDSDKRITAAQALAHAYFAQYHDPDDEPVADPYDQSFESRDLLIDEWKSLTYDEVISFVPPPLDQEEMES

[12] = molecular target: polo-like kinase 1 (Homo sapiens, UniProt P53350); test: Kinase specificity assay Plk1; type: biochemical; conditions: Table 2
Chain of polo-like kinase 1 (P53350 whole entry): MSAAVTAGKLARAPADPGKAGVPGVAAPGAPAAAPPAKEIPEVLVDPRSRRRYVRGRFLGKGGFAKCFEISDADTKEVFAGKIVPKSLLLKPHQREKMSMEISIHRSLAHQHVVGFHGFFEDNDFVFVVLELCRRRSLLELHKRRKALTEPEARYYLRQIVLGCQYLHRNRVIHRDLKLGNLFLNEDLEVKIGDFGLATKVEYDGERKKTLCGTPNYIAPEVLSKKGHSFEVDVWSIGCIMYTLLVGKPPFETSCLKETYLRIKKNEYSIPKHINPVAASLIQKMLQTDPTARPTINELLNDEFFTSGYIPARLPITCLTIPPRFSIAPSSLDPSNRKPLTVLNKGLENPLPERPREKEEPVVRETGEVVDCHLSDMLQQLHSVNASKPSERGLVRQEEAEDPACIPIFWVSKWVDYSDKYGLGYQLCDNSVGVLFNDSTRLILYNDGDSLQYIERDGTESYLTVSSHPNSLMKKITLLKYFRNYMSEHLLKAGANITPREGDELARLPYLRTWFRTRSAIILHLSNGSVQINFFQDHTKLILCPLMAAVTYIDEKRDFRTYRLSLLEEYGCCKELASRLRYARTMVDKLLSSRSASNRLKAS

[13] = molecular target: glycogen synthase kinase 3β (Homo sapiens, UniProt P49841); test: Kinase specificity assay GSK3β; type: biochemical; conditions: Table 2
Chain of glycogen synthase kinase 3β (P49841 whole entry): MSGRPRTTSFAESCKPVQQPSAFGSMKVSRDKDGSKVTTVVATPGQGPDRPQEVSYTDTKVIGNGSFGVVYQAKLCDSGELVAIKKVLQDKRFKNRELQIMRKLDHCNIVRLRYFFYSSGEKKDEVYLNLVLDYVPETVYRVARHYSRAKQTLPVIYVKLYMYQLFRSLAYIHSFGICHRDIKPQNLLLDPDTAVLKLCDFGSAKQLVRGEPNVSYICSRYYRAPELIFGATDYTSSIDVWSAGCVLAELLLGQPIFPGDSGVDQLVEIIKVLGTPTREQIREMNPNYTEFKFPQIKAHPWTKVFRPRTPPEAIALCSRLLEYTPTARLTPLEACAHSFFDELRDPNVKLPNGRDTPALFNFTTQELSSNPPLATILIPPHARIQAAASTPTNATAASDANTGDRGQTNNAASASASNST

[14] = molecular target: calmodulin-dependent kinase II; conditions: read-out: Kinase specificity IC50 Cam-KII; Table 2

Cc1nc(C)c(-c2ccnc(Nc3ccc(N(C)C)c([N+](=O)[O-])c3)n2)s1 [Compound 25, N^4-[4-(2,4-Dimethyl-thiazol-5-yl)-pyrimidin-2-yl-]-N^1,N^1-dimethyl-2-nitro-benzene-1,4-diamine]
IC50 ([1]; A549, 72 h, read-out: 72-h MTT in vitro IC50 (μM) A549): 0.43 µM | IC50 [2]: 0.3 µM | IC50 [3]: 0.35 µM | IC50 [4]: 0.12 µM | IC50 [5]: 1.3 µM | IC50 [6]: > 100 µM | IC50 [7]: > 100 µM | IC50 [8]: 9.9 µM | IC50 [9]: 61 µM | IC50 [10]: 25 µM | IC50 [11]: > 100 µM | IC50 [12]: > 100 µM | IC50 [13]: 0.9 µM | IC50 [14]: > 100 µM

Cc1nc(C)c(-c2ccnc(Nc3ccc(N(C)C)c(Cl)c3)n2)s1 [Compound 26, 2-[N-(4-N,N-Dimethylamino-3-chlorophenyl)]-4-(2,4-dimethylthiazol-5-yl)-pyrimidineamine]
IC50 ([1]; A549, read-out: 72-h MTT in vitro IC50 (μM) A549, Table 1, 72 h): 0.29 µM | IC50 [2]: 0.15 µM | IC50 [3]: 0.32 µM | IC50 [5]: 4.8 µM | IC50 [6]: 20 µM | IC50 [7]: 24 µM | IC50 [8]: 1.6 µM | IC50 [9]: 6.3 µM | IC50 [10]: 32 µM | IC50 [11]: 86 µM | IC50 [12]: > 100 µM | IC50 [13]: 2.2 µM | IC50 [14]: 69 µM
